Entries after “also recorded” stand apart in the source; their conditions may differ.
Assays:
[1] = tested on: human lymphocytes (purified mononuclear leukocytes); assay type: cell-based; conditions: for radiosensitization of cytotoxicity by apoptosis: 1 Gy radiation plus drug (100 μM MCA or 1000 μM others), FIG. 6B; for induction of / effect on apoptotic cytotoxicity: drug alone (FIG. 6A) or with 1 Gy radiation (FIG. 6B)
Experimental: Evaluation of radiosensitization by apoptotic cytotoxicity. […] The cells were first exposed to the drugs for 30 minutes at 37° C. before being given 1 Gy irradiation (^137cesium source, Scanditronix, 1.56 Gy/min). The apoptotic and necrotic cells were analyzed and scored by phase contrast morphological criteria. Apoptotic cells have condensed chromatin and are trypan blue negative whereas necrotic cells stain blue with trypan blue.

[2] = Solubility in water of the hydrochloride salt; assay type: physicochemical; conditions: amorphous hydrochloride salt
Experimental: Preparation of the hydrochloride salt of N-(2-diethylamino-ethyl)nicotinamide. The free base [compound (3)] was dissolved in n-propanol+n-butanol+0.1 M HClaq (2:1:1, v/v/v). An aliquate of 2 M aqueous […] was added to adjust the pH to 2. The solution was concentrated and the resulting amorphous material was dried under vacuum overnight.

| solubility in water [2] | SMILES | radiosensitization of cytotoxicity by apoptosis [1] | induction of / effect on apoptotic cytotoxicity [1] |
| --- | --- | --- | --- |
| – | CCN(CC)CCNC(=O)c1cc(Cl)c(N)cc1OC [metoclopramide, 4-amino-5-chloro-N-(2-diethylamino-ethyl)-2-methoxybenzamide] | having the properties to sensitize apoptotic cell killing by radiation; also recorded: effective | capable of inducing apoptotic cytotoxicity |
| readily soluble in water | CCN(CC)CCNC(=O)c1cccnc1.Cl [N-(2-diethylaminoethyl) nicotinamide HCl] | – | – |
| – | NC(=O)c1cccnc1 [nicotinamide] | not and does not sensitize cytotoxicity by apoptosis | not able to affect cytotoxicity by apoptosis |

From patent US6713517B1, “Use of aryl N-substituted carboxamides directly and as radio-and chemosensitizers for killing tumor and cancer cells and novel compounds for such use” (OXiGENE, Inc., priority 1996, dated 2004)
